{
  "source": "patent US9770467B2",
  "about": "“Compositions and methods for cancer immunotherapy” (THE JOHNS HOPKINS UNIVERSITY, priority 2012, dated 2017)",
  "key": {"primary human PBMCs": {"tested_on": "primary human PBMCs", "experiment": "IFN-α levels in primary human PBMCs by Cytometric Bead Array", "assay_type": "cell-based", "details": "50 μM, Effectene transfection, 24 hours; fifteen donors", "experimental": "To determine the levels of IFN-α as a signature of CDN potency to activate innate immunity, 1×10^6 primary human PBMCs isolated from fifteen independent human donors were incubated in a 96 well U bottom plate for 30 min at 37° C., 5% CO2 with 50 μM of c-di-GMP (CDG), 1 μg/mL of Interferon Stimulatory DNA (ISD), or 4 μg/mL of Poly (I:C) utilizing Effectene transfection reagent (Qiagen) to transfer the molecules into the PBMC. ISD (Interferon Stimulating DNA) is TLR independent (Stetston, D. B. et. al. Immunity 24, 93-103, January 2006) and signals through cGAS, and is thus STING-dependent, while Poly (I:C) can signal through both TLR3 and RIG-I pathways, and are thus STING-independent. After 30 minutes, the cells were washed and replaced with RPMI media containing 10% FBS and incubated at 37° C., 5% CO2. After 24 hours incubation IFN-α levels were determined by Cytometric Bead Array (CBA, BD Biosciences) (FIG. 8)."}, "STING": {"molecular_target": "T1, STING (Mus musculus, UniProt Q3TBT3)", "T1 sequence (Q3TBT3 138-378 limits assumed)": "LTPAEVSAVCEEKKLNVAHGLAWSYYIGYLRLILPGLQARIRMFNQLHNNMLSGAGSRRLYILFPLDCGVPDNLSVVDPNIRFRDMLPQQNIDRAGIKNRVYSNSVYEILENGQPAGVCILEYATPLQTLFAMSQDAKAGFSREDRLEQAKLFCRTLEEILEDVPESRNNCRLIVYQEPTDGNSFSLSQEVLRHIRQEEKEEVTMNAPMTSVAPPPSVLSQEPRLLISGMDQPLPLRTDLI", "details": "cited from earlier work"}},
  "data": [
    {"smiles": "Nc1nc2c(ncn2[C@@H]2O[C@@H]3COP(=O)(O)O[C@H]4[C@@H](O)[C@H](n5cnc6c(=O)[nH]c(N)nc65)O[C@@H]4COP(=O)(O)O[C@H]3[C@H]2O)c(=O)[nH]1", "note": "[cyclic-di-GMP, cyclic diguanylate monophosphate]", "values": [
      {"measurement": "activation of innate immunity (IFN-α levels)", "setting": "primary human PBMCs", "value": "activates innate immunity"},
      {"measurement": "binding to STING", "setting": "STING", "value": "binds directly"}
    ]}
  ]
}
